{"source": "patent US20050197350A1", "about": "“Novel quinoline, tetrahydroquinazoline, and pyrimidine derivatives and methods of treatment related to the use thereof” (TAISHO PHARMACEUTICAL CO., LTD., priority 2003, published 2005)"}
{"tested_on": "MCH receptors", "experiment": "MCH receptor activity class (method not given)", "conditions": "activity class per percent of control at 10^-7 M or IC50"}
{"smiles": "COc1cc(CC(=O)N[C@H]2CC[C@@H](Nc3nc4c(c(N(C)C)n3)CCCC4)CC2)cc(OC)c1", "note": "[compound 978]", "class": "3 (Class 3 The value of percent of control at 10^−7 M was more than 60% or the value of IC50 was more than 200 nM.)"}
{"smiles": "CN(C)c1nc(N[C@H]2CC[C@@H](NC(=O)Cc3cc(C(C)(C)C)c(O)c(C(C)(C)C)c3)CC2)nc2c1CCCC2", "note": "[compound 979]", "class": "3 (Class 3 The value of percent of control at 10^−7 M was more than 60% or the value of IC50 was more than 200 nM.)"}
{"smiles": "CN(C)c1cccc(C(=O)N[C@H]2CC[C@@H](Nc3nc4c(c(N(C)C)n3)CCCC4)CC2)c1", "note": "[compound 981, 3-(dimethylamino)-N-(cis-4-{[4-(dimethylamino)-5,6,7,8-tetrahydroquinazolin-2-yl]amino}cyclohexyl)benzamide]", "class": "2 (Class 2: The value of percent of control at 10^−7 M was from 40% to 60% or the value of IC′50 was from 50 nM to 200 nM.)"}
{"smiles": "CN(C)c1nc(N[C@H]2CC[C@@H](NC(=O)c3cc(Br)c(Br)o3)CC2)nc2c1CCCC2", "note": "[compound 982]", "class": "1 (Class 1: The value of percent of control at 10^−7 M was less than 40% or the value of IC50 was less than 50 nM.)"}
{"smiles": "CN(C)c1nc(N[C@H]2CC[C@@H](NC(=O)CCC(=O)c3ccc(F)cc3)CC2)nc2c1CCCC2", "note": "[compound 983]", "class": "2 (Class 2: The value of percent of control at 10^−7 M was from 40% to 60% or the value of IC′50 was from 50 nM to 200 nM.)"}
{"smiles": "CC(C(=O)N[C@H]1CC[C@@H](Nc2nc3c(c(N(C)C)n2)CCCC3)CC1)c1ccc(N2Cc3ccccc3C2=O)cc1", "note": "(stereo partly drawn) [compound 985, N-(cis-4-{[4-(dimethylamino)-5,6,7,8-tetrahydroquinazolin-2-yl]amino}cyclohexyl)-2-[4-(1-oxo-1,3-dihydro-2H-isoindol-2-yl)pheny]propanamide]", "class": "2 (Class 2: The value of percent of control at 10^−7 M was from 40% to 60% or the value of IC′50 was from 50 nM to 200 nM.)"}
{"smiles": "CN(C)c1nc(N[C@H]2CC[C@@H](NC(=O)Cc3c[nH]c4ccccc34)CC2)nc2c1CCCC2", "note": "[compound 986, N-(cis-4-{[4-(diniethylamino)-5,6,7,8-tetrahydroquinazolin-2-yl]amino}cyclohexyl)-2-(1H-indol-3-yl)acetamide]", "class": "1 (Class 1: The value of percent of control at 10^−7 M was less than 40% or the value of IC50 was less than 50 nM.)"}
{"tested_on": "MCH receptors", "experiment": "MCH receptor activity class (method not given)", "conditions": "class by percent of control at 10^-7 M or IC50"}
{"smiles": "CN(C)c1ccnc(N[C@H]2CC[C@@H](CNC(=O)C3c4ccccc4Oc4ccccc43)CC2)n1", "note": "[compound 947, N-[(cis-4-{[4-(dimethylamino)pyrimidin-2-yl]amino}cyclohexyl)methyl]-9H-xanthene-9-carboxamide]", "class": "1 (Class 1: The value of percent of control at 10^−7 M was less than 40% or the value of IC50 was less than 50 nM.)"}
{"smiles": "CN(C)c1ccnc(N[C@H]2CC[C@@H](CNC(=O)Cc3csc4ccccc34)CC2)n1", "note": "[compound 948]", "class": "1 (Class 1: The value of percent of control at 10^−7 M was less than 40% or the value of IC50 was less than 50 nM.)"}
{"smiles": "CN(C)c1nc(N[C@H]2CC[C@@H](NC(=O)c3ccc(Br)s3)CC2)nc2c1CCCC2", "note": "[compound 949]", "class": "2 (Class 2: The value of percent of control at 10^−7 M was from 40% to 60% or the value of IC′50 was from 50 nM to 200 nM.)"}
{"smiles": "CN(C)c1nc(N[C@H]2CC[C@@H](NC(=O)Cc3c(Cl)ccc(Cl)c3Cl)CC2)nc2c1CCCC2", "note": "[compound 950]", "class": "2 (Class 2: The value of percent of control at 10^−7 M was from 40% to 60% or the value of IC′50 was from 50 nM to 200 nM.)"}
{"smiles": "CN(C)c1nc(N[C@H]2CC[C@@H](NC(=O)Cc3ccc(F)cc3Cl)CC2)nc2c1CCCC2", "note": "[compound 951, 2-(2-chloro-4-fluorophenyl)-N-(cis-4-{[4-(dimethylamino)-5,6,7,8-tetrahydroquinazolin-2-yl]amino}cyclohexyl)acetamide]", "class": "1 (Class 1: The value of percent of control at 10^−7 M was less than 40% or the value of IC50 was less than 50 nM.)"}
{"smiles": "CN(C)c1nc(N[C@H]2CC[C@@H](NC(=O)c3ccc(-c4ccc(Cl)cc4[N+](=O)[O-])o3)CC2)nc2c1CCCC2", "note": "[compound 952, 5-(4-chloro-2-nitrophenyl)-N-(cis-4-{[4-(dimethylamino)-5,6,7,8-tetrahydroquinazolin-2-yl]amino}cyclohexyl)-2-furamide]", "class": "1 (Class 1: The value of percent of control at 10^−7 M was less than 40% or the value of IC50 was less than 50 nM.)"}
{"smiles": "CN(C)c1nc(N[C@H]2CC[C@@H](NC(=O)c3ccc(Cl)s3)CC2)nc2c1CCCC2", "note": "[compound 953]", "class": "1 (Class 1: The value of percent of control at 10^−7 M was less than 40% or the value of IC50 was less than 50 nM.)"}
{"smiles": "CN(C)c1nc(N[C@H]2CC[C@@H](NC(=O)CCc3ccccc3O)CC2)nc2c1CCCC2", "note": "[compound 955]", "class": "2 (Class 2: The value of percent of control at 10^−7 M was from 40% to 60% or the value of IC′50 was from 50 nM to 200 nM.)"}
{"smiles": "CN(C)c1nc(N[C@H]2CC[C@@H](NC(=O)c3ccc(I)o3)CC2)nc2c1CCCC2", "note": "[compound 956]", "class": "1 (Class 1: The value of percent of control at 10^−7 M was less than 40% or the value of IC50 was less than 50 nM.)"}
{"smiles": "CN(C)c1nc(N[C@H]2CC[C@@H](NC(=O)Cc3ccccc3I)CC2)nc2c1CCCC2", "note": "[compound 957]", "class": "2 (Class 2: The value of percent of control at 10^−7 M was from 40% to 60% or the value of IC′50 was from 50 nM to 200 nM.)"}
{"smiles": "COc1ccc2[nH]c(C)c(CC(=O)N[C@H]3CC[C@@H](Nc4nc5c(c(N(C)C)n4)CCCC5)CC3)c2c1", "note": "[compound 958]", "class": "2 (Class 2: The value of percent of control at 10^−7 M was from 40% to 60% or the value of IC′50 was from 50 nM to 200 nM.)"}
{"smiles": "CN(C)c1nc(N[C@H]2CC[C@@H](NC(=O)/C=C/c3cccc([N+](=O)[O-])c3)CC2)nc2c1CCCC2", "note": "[compound 959]", "class": "3 (Class 3 The value of percent of control at 10^−7 M was more than 60% or the value of IC50 was more than 200 nM.)"}
{"smiles": "CN(C)c1nc(N[C@H]2CC[C@@H](NC(=O)c3ccccc3Cc3ccccc3)CC2)nc2c1CCCC2", "note": "[compound 961]", "class": "2 (Class 2: The value of percent of control at 10^−7 M was from 40% to 60% or the value of IC′50 was from 50 nM to 200 nM.)"}
{"smiles": "CN(C)c1nc(N[C@H]2CC[C@@H](NC(=O)C(c3ccc(Cl)cc3)c3ccc(Cl)cc3)CC2)nc2c1CCCC2", "note": "[compound 962]", "class": "1 (Class 1: The value of percent of control at 10^−7 M was less than 40% or the value of IC50 was less than 50 nM.)"}
{"smiles": "Cc1ccc(-c2ccc(C(=O)N[C@H]3CC[C@@H](Nc4nc5c(c(N(C)C)n4)CCCC5)CC3)o2)c([N+](=O)[O-])c1", "note": "[compound 963]", "class": "2 (Class 2: The value of percent of control at 10^−7 M was from 40% to 60% or the value of IC′50 was from 50 nM to 200 nM.)"}
{"smiles": "CN(C)c1nc(N[C@H]2CC[C@@H](NC(=O)c3ccc([N+](=O)[O-])s3)CC2)nc2c1CCCC2", "note": "[compound 964]", "class": "1 (Class 1: The value of percent of control at 10^−7 M was less than 40% or the value of IC50 was less than 50 nM.)"}
{"smiles": "Cc1cc(C(=O)N[C@H]2CC[C@@H](Nc3nc4c(c(N(C)C)n3)CCCC4)CC2)ccc1[N+](=O)[O-]", "note": "[compound 965]", "class": "1 (Class 1: The value of percent of control at 10^−7 M was less than 40% or the value of IC50 was less than 50 nM.)"}
{"smiles": "COc1cc(C(=O)N[C@H]2CC[C@@H](Nc3nc4c(c(N(C)C)n3)CCCC4)CC2)ccc1[N+](=O)[O-]", "note": "[compound 966]", "class": "1 (Class 1: The value of percent of control at 10^−7 M was less than 40% or the value of IC50 was less than 50 nM.)"}
{"smiles": "CN(C)c1nc(N[C@H]2CC[C@@H](NC(=O)c3cn(Cc4ccccc4)c4ccccc34)CC2)nc2c1CCCC2", "note": "[compound 967]", "class": "3 (Class 3 The value of percent of control at 10^−7 M was more than 60% or the value of IC50 was more than 200 nM.)"}
{"smiles": "CC(=O)c1cccc(C(=O)N[C@H]2CC[C@@H](Nc3nc4c(c(N(C)C)n3)CCCC4)CC2)c1", "note": "[compound 968]", "class": "1 (Class 1: The value of percent of control at 10^−7 M was less than 40% or the value of IC50 was less than 50 nM.)"}
{"smiles": "CN(C)c1nc(N[C@H]2CC[C@@H](NC(=O)C3CCCC[C@H]3C(=O)c3ccccc3)CC2)nc2c1CCCC2", "note": "(stereo partly drawn) [compound 969]", "class": "3 (Class 3 The value of percent of control at 10^−7 M was more than 60% or the value of IC50 was more than 200 nM.)"}
{"smiles": "CN(C)c1nc(N[C@H]2CC[C@@H](NC(=O)c3ccc(Br)o3)CC2)nc2c1CCCC2", "note": "[compound 970, 5-bromo-N-(cis-4-{[4-(dimethylamino)-5,6,7,8-tetrahydroquinazolin-2-yl]amino}cyclohexyl)-2-furamide]", "class": "1 (Class 1: The value of percent of control at 10^−7 M was less than 40% or the value of IC50 was less than 50 nM.)"}
{"smiles": "CN(C)c1nc(N[C@H]2CC[C@@H](NC(=O)CCC3CCCCC3)CC2)nc2c1CCCC2", "note": "[compound 971]", "class": "3 (Class 3 The value of percent of control at 10^−7 M was more than 60% or the value of IC50 was more than 200 nM.)"}
{"smiles": "Cc1ccnc(SCC(=O)N[C@H]2CC[C@@H](Nc3nc4c(c(N(C)C)n3)CCCC4)CC2)n1", "note": "[compound 972]", "class": "2 (Class 2: The value of percent of control at 10^−7 M was from 40% to 60% or the value of IC′50 was from 50 nM to 200 nM.)"}
{"smiles": "CN(C)c1nc(N[C@H]2CC[C@@H](NC(=O)c3ccc(-c4ccc(Cl)cc4)o3)CC2)nc2c1CCCC2", "note": "[compound 973]", "class": "1 (Class 1: The value of percent of control at 10^−7 M was less than 40% or the value of IC50 was less than 50 nM.)"}
{"smiles": "CN(C)c1nc(N[C@H]2CC[C@@H](NC(=O)CCc3ccc(Cl)c(Cl)c3)CC2)nc2c1CCCC2", "note": "[compound 974]", "class": "3 (Class 3 The value of percent of control at 10^−7 M was more than 60% or the value of IC50 was more than 200 nM.)"}
{"smiles": "CN(C)c1nc(N[C@H]2CC[C@@H](NC(=O)Cc3ccc(Cl)c(Cl)c3)CC2)nc2c1CCCC2", "note": "[compound 975]", "class": "1 (Class 1: The value of percent of control at 10^−7 M was less than 40% or the value of IC50 was less than 50 nM.)"}
{"smiles": "COc1cc(CC(=O)N[C@H]2CC[C@@H](Nc3nc4c(c(N(C)C)n3)CCCC4)CC2)cc(OC)c1O", "note": "[compound 976]", "class": "1 (Class 1: The value of percent of control at 10^−7 M was less than 40% or the value of IC50 was less than 50 nM.)"}
{"smiles": "CN(C)c1nc(N[C@H]2CC[C@@H](NC(=O)c3cc(Br)c(Br)s3)CC2)nc2c1CCCC2", "note": "[compound 977, 4,5-dibromo-N-(cis-4-{[4-(dimethylamino)-5,6,7,8-tetrahydroquinazolin-2-yl]amino}cyclohexyl)thiophene-2-carboxamide]", "class": "2 (Class 2: The value of percent of control at 10^−7 M was from 40% to 60% or the value of IC′50 was from 50 nM to 200 nM.)"}
